According to patent publication US9976149B2, “Modified listeria bacteria and uses thereof” (priority 2014, dated 2018):
Values after ≈ are worked out from the molar mass of the structure shown.

What was measured:
WT bacteria [1] = assay: Minimal inhibitory concentration for WT bacteria; assay type: cell-based; details: Listeria monocytogenes
Description: (§1) Overnight cultures were adjusted to 0.03 O.D.600 in 20 ml fresh BHI broth, supplemented when indicated with 0.25 mM IPTG, 0.08 μg ml^−1 penicillin G, 1 μg ml^−1 vancomycin or 3 μg ml^−1 c-di-AMP. For bacterial RNA extraction, bacteria were grown at 37° C. to O.D.600 0.4, then supplemented with 3 μg ml^−1 lincomycin, 50 μM rhodamine 6 G (R6G), 1 μg ml^−1 vancomycin, 0.08 μg ml^−1 penicillin G for 2 h; or centrifuged and resuspended in minimal media pH 5 (lactic acid), minimal media with 10 mM H2O2, or defined minimal media pH 5 with 10 mM H2O2 for 30 mM For microscopy bacteria were grown similarly and supplemented with 1 μg ml^−1 vancomycin for 2 h. Growth curves in the presence of drugs were performed in a Synergy HT BIOTEK® plate reader at 37° C. with continuous shaking following O.D.600 every 15 min for 24 h. Of note, bacterial growth in the plate reader is different than in flasks in respect to the O.D. levels that are measured. In each experiment, growth conditions are indicated.

ΔmdrMTAC = assay: Minimal inhibitory concentration for ΔmdrMTAC; assay type: cell-based; details: Listeria monocytogenes, read-out: minimal inhibitory concentration
ΔmdrMTAC mutant = assay: Growth curves in BHI with added cyclic dinucleotide, ΔmdrMTAC mutant; assay type: cell-based, Listeria monocytogenes; details: for effect on growth in the absence of vancomycin stress: BHI, dinucleotide 3 μg ml^−1; for effect on growth in the presence of vancomycin: vancomycin 1 μg ml^−1, dinucleotide 3 μg ml^−1
Description: as §1

WT L. monocytogenes = assay: Growth curves in BHI with added cyclic dinucleotide, WT bacteria; assay type: cell-based, Listeria monocytogenes; details: for effect on growth in the absence of vancomycin stress: BHI, dinucleotide 3 μg ml^−1; for effect on growth in the presence of vancomycin: vancomycin 1 μg ml^−1, dinucleotide 3 μg ml^−1
Description: as §1

WT bacteria [2] = assay: TEM sections, cell wall thickness under vancomycin treatment, WT bacteria; assay type: cell-based, Listeria monocytogenes; details: vancomycin 1 μg ml^−1 for 2 h
Description: as §1
Bacteria were grown as described above with and without vancomycin treatment. For negative staining, PBS washed bacteria were adsorbed on formvar/carbon coated grids and stained with 2% aqueous uranyl acetate. For TEM sections, a bacterial pellet from 20 ml of culture was fixed in 2.5% glutaraldehyde in PBS at 4° C. for 20 h, washed three times with PBS and post-fixed in 1% OsO4 in PBS at 4° C. for 2 h. […]

[3] = tested on: dacA gene transcription in WT bacteria; assay: RT-qPCR of dacA transcription upon vancomycin treatment, WT bacteria; assay type: cell-based, Listeria monocytogenes
Description: as §1, with “[…];” for “1 μg ml^−1 vancomycin, 0.08 μg ml^−1 penicillin G for 2 h;”
RNA was purified from bacteria in mid-log growth in BHI or from infected cells using standard phenol-chloroform extraction methods. RNA from intracellularly grown bacteria was amplified using MESSAGEAMP™ II (AMBION™) bacterial RNA amplification kit according to the manufacturer's instructions. RNA of infected macrophages was extracted using TRIZOL® reagent according to standard protocols. […]

CC1(C)S[C@@H]2[C@H](NC(=O)Cc3ccccc3)C(=O)N2[C@H]1C(=O)O [penicillin, penicillin G]
MIC (WT bacteria [1]): 0.15 µg/mL
MIC (ΔmdrMTAC): 0.08 µg/mL (≈ 0.239 µM)

Nc1ncnc2c1ncn2[C@@H]1O[C@@H]2COP(=O)(O)O[C@H]3[C@@H](O)[C@H](n4cnc5c(N)ncnc54)O[C@@H]3COP(=O)(O)O[C@H]2[C@H]1O [c-di-AMP, cyclic-di-adenosine monophosphate]
effect on growth in the absence of vancomycin stress (ΔmdrMTAC mutant): no effect
effect on growth in the presence of vancomycin (ΔmdrMTAC mutant): shorter lag phase
effect on growth in the absence of vancomycin stress (WT L. monocytogenes): no effect
effect on growth in the presence of vancomycin (WT L. monocytogenes): shorter lag phase

CN[C@H](CC(C)C)C(=O)N[C@H]1C(=O)N[C@@H](CC(N)=O)C(=O)N[C@H]2C(=O)N[C@H]3C(=O)N[C@H](C(=O)N[C@H](C(=O)O)c4cc(O)cc(O)c4-c4cc3ccc4O)[C@H](O)c3ccc(c(Cl)c3)Oc3cc2cc(c3O[C@@H]2O[C@H](CO)[C@@H](O)[C@H](O)[C@H]2O[C@H]2C[C@](C)(N)[C@H](O)[C@H](C)O2)Oc2ccc(cc2Cl)[C@H]1O [vancomycin]
MIC (WT bacteria [1]): 2 µg/mL
cell wall thickness, average (WT bacteria [2]): 35 nm
MIC (ΔmdrMTAC): 1.5 µg/mL (≈ 1.04 µM)
dacA transcription level in comparison to non-treated bacteria ([3]; sub-lethal vancomycin 1 μg ml^−1): 1.5 fold
dacA transcription level in comparison to non-treated bacteria ([3]; vancomycin 20 μg ml^−1 for 10 minutes): 4.5 fold

Nc1nc2c(ncn2[C@@H]2O[C@@H]3COP(=O)(O)O[C@H]4[C@@H](O)[C@H](n5cnc6c(=O)[nH]c(N)nc65)O[C@@H]4COP(=O)(O)O[C@H]3[C@H]2O)c(=O)[nH]1 [c-di-GMP]
effect on growth in the absence of vancomycin stress (ΔmdrMTAC mutant): no effect
effect on growth in the presence of vancomycin (ΔmdrMTAC mutant): no effect
effect on growth in the absence of vancomycin stress (WT L. monocytogenes): no effect
effect on growth in the presence of vancomycin (WT L. monocytogenes): no effect
